Broadly, the Ki is a measure of affinity in units of concentration, obtained from inhibition or displacement.

Ki data for one molecule are collected here from ChEMBL document CHEMBL1208702, “Use of 2-[(18)F]fluoroethylazide for the Staudinger ligation - Preparation and characterisation of GABA(A) receptor binding 4-quinolones” (Bioorg Med Chem Lett, 2010).

The test in a line: Displacement of [3H]Ro151788 from GABA-A receptor in Wistar rat cerebellar membrane after 1 hr by liquid scintillation counting. It counts as cell membranes, Cerebellum.

Regarding `O=C(NCCCF)c1c[nH]c2ccc(Br)cc2c1=O`, the Ki came out at 1.3 nM.
